The values that follow come from ChEMBL document CHEMBL1157886, “Potent dihydroquinolinone dopamine D2 partial agonist/serotonin reuptake inhibitors for the treatment of schizophrenia” (Bioorg Med Chem Lett, 2010).

The structures appear in SMILES notation.

For test [1], the target named is Sodium-dependent serotonin transporter (Homo sapiens, UniProt P31645).
The target of test [2] is T1, D(2) dopamine receptor (Homo sapiens, UniProt P14416). Nature of the test: Displacement of [3H]spiperone form human dopamine D2 receptor by liquid scintillation counting. For orientation: Loss of bound radioactivity is the signal in a displacement assay; it reports binding, not function.
In test [3] the target is T1, D(2) dopamine receptor. In words: Ratio of compound to quinpirole partial agonist activity at human dopamine D2 receptor. Format: functional.
In test [4] the target is T2, Adrenergic receptor alpha-1 (Homo sapiens, UniProt P35348+P25100+P35368).
T2 sequence (P35348 whole entry): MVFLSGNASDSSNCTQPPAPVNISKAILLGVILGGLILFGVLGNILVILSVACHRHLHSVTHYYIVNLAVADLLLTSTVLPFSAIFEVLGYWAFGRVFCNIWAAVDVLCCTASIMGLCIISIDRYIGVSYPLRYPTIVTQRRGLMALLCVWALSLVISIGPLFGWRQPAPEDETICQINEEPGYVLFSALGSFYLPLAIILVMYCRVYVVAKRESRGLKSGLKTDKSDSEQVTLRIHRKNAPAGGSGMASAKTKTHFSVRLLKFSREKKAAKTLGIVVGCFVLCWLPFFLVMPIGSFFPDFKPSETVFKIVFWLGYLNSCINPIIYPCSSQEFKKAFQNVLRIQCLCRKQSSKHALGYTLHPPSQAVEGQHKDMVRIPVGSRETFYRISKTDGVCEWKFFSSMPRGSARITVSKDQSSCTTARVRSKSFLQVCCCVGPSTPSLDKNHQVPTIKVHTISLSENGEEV
T2 sequence (P25100 whole entry): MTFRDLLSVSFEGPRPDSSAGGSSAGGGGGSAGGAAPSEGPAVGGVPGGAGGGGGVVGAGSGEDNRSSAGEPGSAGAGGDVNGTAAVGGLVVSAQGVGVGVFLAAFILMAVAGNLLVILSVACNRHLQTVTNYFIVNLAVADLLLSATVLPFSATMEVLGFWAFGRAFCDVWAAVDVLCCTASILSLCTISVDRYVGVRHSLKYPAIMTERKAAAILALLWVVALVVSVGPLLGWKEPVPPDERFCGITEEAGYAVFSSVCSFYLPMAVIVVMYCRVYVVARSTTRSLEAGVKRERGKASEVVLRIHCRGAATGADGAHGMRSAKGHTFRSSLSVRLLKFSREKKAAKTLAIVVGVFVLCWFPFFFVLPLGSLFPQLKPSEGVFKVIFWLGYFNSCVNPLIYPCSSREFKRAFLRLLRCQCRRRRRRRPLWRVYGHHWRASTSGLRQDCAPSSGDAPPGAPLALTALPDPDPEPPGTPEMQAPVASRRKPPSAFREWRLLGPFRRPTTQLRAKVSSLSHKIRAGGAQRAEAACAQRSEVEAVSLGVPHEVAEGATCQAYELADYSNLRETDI
T2 sequence (P35368 whole entry): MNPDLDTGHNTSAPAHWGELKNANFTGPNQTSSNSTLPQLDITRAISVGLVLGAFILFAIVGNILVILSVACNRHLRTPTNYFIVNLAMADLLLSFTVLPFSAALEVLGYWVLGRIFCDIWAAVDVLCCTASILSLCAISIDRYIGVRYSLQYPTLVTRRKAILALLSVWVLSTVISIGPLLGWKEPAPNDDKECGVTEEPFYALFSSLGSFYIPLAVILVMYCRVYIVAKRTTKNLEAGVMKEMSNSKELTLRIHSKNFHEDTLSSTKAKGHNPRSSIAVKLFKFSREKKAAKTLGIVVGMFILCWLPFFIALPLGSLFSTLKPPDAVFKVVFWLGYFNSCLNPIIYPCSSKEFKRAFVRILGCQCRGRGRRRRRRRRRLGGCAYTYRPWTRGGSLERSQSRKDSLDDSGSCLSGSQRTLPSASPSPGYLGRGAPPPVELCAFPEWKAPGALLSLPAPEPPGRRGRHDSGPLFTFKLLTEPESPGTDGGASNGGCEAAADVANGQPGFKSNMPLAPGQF
Nature of the test: Binding affinity to human alpha1 adrenergic receptor by radioligand displacement assay.

Sequence of Sodium-dependent serotonin transporter (P31645 whole entry): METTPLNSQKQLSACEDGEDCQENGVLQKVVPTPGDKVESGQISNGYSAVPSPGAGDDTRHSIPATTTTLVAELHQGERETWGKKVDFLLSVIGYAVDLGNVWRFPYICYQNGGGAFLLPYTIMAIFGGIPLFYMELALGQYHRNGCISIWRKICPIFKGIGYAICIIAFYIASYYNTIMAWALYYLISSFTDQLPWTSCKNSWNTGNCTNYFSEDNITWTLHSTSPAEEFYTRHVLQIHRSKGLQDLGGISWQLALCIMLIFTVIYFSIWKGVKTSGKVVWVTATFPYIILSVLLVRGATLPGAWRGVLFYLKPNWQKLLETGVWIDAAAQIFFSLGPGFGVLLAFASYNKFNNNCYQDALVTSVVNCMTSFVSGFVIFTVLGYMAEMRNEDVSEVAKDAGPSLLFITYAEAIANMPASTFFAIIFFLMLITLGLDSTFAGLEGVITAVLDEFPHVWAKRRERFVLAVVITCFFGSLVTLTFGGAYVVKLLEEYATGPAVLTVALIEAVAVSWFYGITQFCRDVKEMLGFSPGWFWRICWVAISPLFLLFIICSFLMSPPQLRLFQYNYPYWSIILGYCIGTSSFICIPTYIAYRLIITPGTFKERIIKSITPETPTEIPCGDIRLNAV
T1 sequence (P14416 whole entry): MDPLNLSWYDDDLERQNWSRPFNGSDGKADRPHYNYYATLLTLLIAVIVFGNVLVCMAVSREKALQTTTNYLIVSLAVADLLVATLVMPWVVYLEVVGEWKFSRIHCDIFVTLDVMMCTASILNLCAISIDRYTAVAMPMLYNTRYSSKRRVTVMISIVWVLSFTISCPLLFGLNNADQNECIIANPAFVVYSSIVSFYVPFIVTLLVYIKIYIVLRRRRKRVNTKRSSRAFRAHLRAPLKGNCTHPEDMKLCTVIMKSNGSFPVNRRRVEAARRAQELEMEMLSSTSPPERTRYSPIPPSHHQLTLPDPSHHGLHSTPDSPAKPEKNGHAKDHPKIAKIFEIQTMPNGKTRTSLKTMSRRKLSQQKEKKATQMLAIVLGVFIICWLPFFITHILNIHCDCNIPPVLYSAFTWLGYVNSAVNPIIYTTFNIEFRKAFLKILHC

For orientation: Ki means a dissociation constant, usually derived from enzyme kinetics or from competition with a known ligand. `CS(=O)(=O)Nc1cccc(OCCN2CCC(Cc3ccc4c(c3)NC(=O)CC4)CC2)c1`: the Ki came out at 19 nM in test [1] and 9 nM at D(2) dopamine receptor [2]. Moreover, the Ratio on D(2) dopamine receptor [3] was below 0.1.

For the molecule `O=C1CCc2ccc(OCCCN3CCN(c4cccc5[nH]c(=O)oc45)CC3)cc2N1`, the Ki in test [1] stood at 93 nM; at D(2) dopamine receptor [2], 8.6 nM.

With `O=C1CCc2ccc(CC3CC4CCC(C3)N4C[C@@H]3COc4c(ccc5c4CC(=O)N5)O3)cc2N1` (some centres undefined), the Ki in test [4] came out at 8 nM; in test [1] it was 0.26 nM; on D(2) dopamine receptor [2] it was 16 nM. At D(2) dopamine receptor [3], the Ratio is below 0.1.

For the molecule `CS(=O)(=O)Nc1cc(OCCN2CC3CCC(C2)C3Cc2ccc3c(c2)NC(=O)CC3)ccc1F` (centres undefined), the Ki stood at 1100 nM in test [4], 5 nM in test [1] and 7 nM at D(2) dopamine receptor [2]. Further, the Ratio on D(2) dopamine receptor [3] was 0.85.

Consider `CS(=O)(=O)Nc1cccc(OCCN2CCC(Oc3ccc4c(c3)NC(=O)CC4)CC2)c1`, for which the results for the Ki (in test [4]; in test [1]; on D(2) dopamine receptor [2]) were 91 nM, 22 nM and 18 nM, respectively. Moreover, the Ratio at D(2) dopamine receptor [3] is 0.21.

Take `O=C1CCc2ccc(CC3CCN(C[C@@H]4COc5c(ccc6c5CC(=O)N6)O4)CC3)cc2N1`: the Ki was 2 nM in test [4], 1.9 nM in test [1] and 8 nM at D(2) dopamine receptor [2]. Besides, the Ratio at D(2) dopamine receptor [3] turned out to be 0.38.

In the case of `O=C1CCc2ccc(CC3C4CCC3CN(C[C@@H]3COc5c(ccc6c5CC(=O)N6)O3)C4)cc2N1` (some centres undefined), the Ki is 46 nM in test [4], 1.5 nM in test [1] and 6.3 nM on D(2) dopamine receptor [2]. The Ratio at D(2) dopamine receptor [3] came to 0.4.

Regarding `CS(=O)(=O)Nc1cc(OCCN2CCC(Oc3ccc4c(c3)NC(=O)CC4)CC2)ccc1F`, the inhibition constant Ki worked out at 354 nM in test [4], 30 nM in test [1] and 9 nM on D(2) dopamine receptor [2]. The Ratio on D(2) dopamine receptor [3] is below 0.1.

Consider `O=C1CCc2ccc(OCCCCN3CCN(c4cccc5[nH]c(=O)oc45)CC3)cc2N1`, for which the Ki in test [1] was determined as 94 nM; at D(2) dopamine receptor [2], 8.3 nM.

As for `O=C1CCc2ccc(OCCN3CCN(c4cccc5[nH]c(=O)oc45)CC3)cc2N1`, the Ki in test [1] amounted to 538 nM; at D(2) dopamine receptor [2], 8.6 nM.

For the molecule `CS(=O)(=O)Nc1cccc(OCCN2CC3CCC(C2)C3Cc2ccc3c(c2)NC(=O)CC3)c1` (centres undefined), the Ki in test [4] is above 3300 nM; in test [1], 1.7 nM; at D(2) dopamine receptor [2] it was 11 nM. In addition, the Ratio on D(2) dopamine receptor [3] amounted to 0.25.

In the case of `CS(=O)(=O)Nc1cc(OCCN2CCC(Cc3ccc4c(c3)NC(=O)CC4)CC2)ccc1F`, the Ki in test [1] was found to be 20 nM; at D(2) dopamine receptor [2], 19 nM. Also, at D(2) dopamine receptor [3], the Ratio is below 0.1.

For `O=C1CCc2ccc(OC3CCN(C[C@@H]4COc5c(ccc6c5CC(=O)N6)O4)CC3)cc2N1`, the values for the Ki (in test [4]; in test [1]; on D(2) dopamine receptor [2]) were 2 nM, 20 nM and 2.5 nM, respectively. Moreover, the Ratio at D(2) dopamine receptor [3] is 0.41.
